In PubChem BioAssay (NCI):
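Values below derive from 48-hour exposures of cells grown in 96-well plates, with endpoints linearly interpolated between the two concentrations bracketing the appropriate inhibition level. Abbreviation: GI50, concentration required for 50% inhibition of growth. TGI is the concentration that stops growth completely.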

What was measured:
Experiment in all cases: NCI anticancer screen, dose series, 48 h
786-0 renal = system: 786-0 renal
A498 renal = system: A498 renal
A549 NSCLC = system: A549 NSCLC
ACHN renal = system: ACHN renal
BT-549 breast = system: BT-549 breast
CAKI-1 renal = system: CAKI-1 renal
CCRF-CEM leukemia = system: CCRF-CEM leukemia
COLO 205 colon = system: COLO 205 colon
DU-145 prostate = system: DU-145 prostate
EKVX NSCLC = system: EKVX NSCLC
HCC-2998 colon = system: HCC-2998 colon
HCT-116 colon = system: HCT-116 colon
HCT-15 colon = system: HCT-15 colon
HL-60(TB) leukemia = system: HL-60(TB) leukemia
HOP-62 NSCLC = system: HOP-62 NSCLC
HS 578T breast = system: HS 578T breast
HT29 colon = system: HT29 colon
IGROV1 ovarian = system: IGROV1 ovarian
K-562 leukemia = system: K-562 leukemia
KM12 colon = system: KM12 colon
LOX IMVI melanoma = system: LOX IMVI melanoma
M14 melanoma = system: M14 melanoma
MALME-3M melanoma = system: MALME-3M melanoma
MCF7 breast = system: MCF7 breast
MDA-MB-231 breast = system: MDA-MB-231 breast
MDA-MB-435 = system: MDA-MB-435
MOLT-4 leukemia = system: MOLT-4 leukemia
NCI-H226 lung = system: NCI-H226 lung
NCI-H23 lung = system: NCI-H23 lung
NCI-H460 lung = system: NCI-H460 lung
NCI-H522 lung = system: NCI-H522 lung
NCI/ADR-RES ovarian = system: NCI/ADR-RES ovarian
OVCAR-3 ovarian = system: OVCAR-3 ovarian
OVCAR-4 ovarian = system: OVCAR-4 ovarian
OVCAR-5 ovarian = system: OVCAR-5 ovarian
OVCAR-8 ovarian = system: OVCAR-8 ovarian
PC-3 prostate = system: PC-3 prostate
RPMI-8226 leukemia = system: RPMI-8226 leukemia
RXF 393 renal = system: RXF 393 renal
SF-268 CNS = system: SF-268 CNS
SF-295 CNS = system: SF-295 CNS
SF-539 CNS = system: SF-539 CNS
SK-MEL-2 melanoma = system: SK-MEL-2 melanoma
SK-MEL-28 melanoma = system: SK-MEL-28 melanoma
SK-MEL-5 melanoma = system: SK-MEL-5 melanoma
SK-OV-3 ovarian = system: SK-OV-3 ovarian
SN12C renal = system: SN12C renal
SNB-19 CNS = system: SNB-19 CNS
SNB-75 CNS = system: SNB-75 CNS
SR leukemia = system: SR leukemia
SW-620 colon = system: SW-620 colon
T-47D breast = system: T-47D breast
TK-10 renal = system: TK-10 renal
U251 CNS = system: U251 CNS
UACC-257 melanoma = system: UACC-257 melanoma
UACC-62 melanoma = system: UACC-62 melanoma
UO-31 renal = system: UO-31 renal

C[C@@H]1CC[C@@H]2[C@@H]1[C@H](OC(=O)/C=C/c1ccccc1)[C@]1(C3CCCCC3)C[C@@H](NC(=O)CO)[C@@]2(C)O1
GI50 (786-0 renal): 14.9 µM | TGI (786-0 renal): 29.3 µM | GI50 (A498 renal): 2.19 µM | TGI (A498 renal): 6.61 µM | GI50 (A549 NSCLC): 21 µM | TGI (A549 NSCLC): 37 µM | GI50 (ACHN renal): 3.51 µM | TGI (ACHN renal): 13.1 µM | GI50 (BT-549 breast): 13.2 µM | TGI (BT-549 breast): 26.7 µM | GI50 (CAKI-1 renal): 6.01 µM | TGI (CAKI-1 renal): 19.7 µM | GI50 (CCRF-CEM leukemia): 23.2 µM | TGI (CCRF-CEM leukemia): 45.2 µM | GI50 (COLO 205 colon): 16.6 µM | TGI (COLO 205 colon): 33.5 µM | GI50 (DU-145 prostate): 18.4 µM | TGI (DU-145 prostate): 32.9 µM | GI50 (EKVX NSCLC): 13.5 µM | TGI (EKVX NSCLC): 27.5 µM | GI50 (HCC-2998 colon): 18.3 µM | TGI (HCC-2998 colon): 35.1 µM | GI50 (HCT-116 colon): 19.5 µM | TGI (HCT-116 colon): 34.2 µM | GI50 (HCT-15 colon): 15.8 µM | TGI (HCT-15 colon): 33.2 µM | GI50 (HL-60(TB) leukemia): 21.5 µM | TGI (HL-60(TB) leukemia): 40.4 µM | GI50 (HOP-62 NSCLC): 17.4 µM | TGI (HOP-62 NSCLC): 33.5 µM | GI50 (HS 578T breast): 2.79 µM | TGI (HS 578T breast): 9.21 µM | GI50 (HT29 colon): 18.9 µM | TGI (HT29 colon): 35.5 µM | GI50 (IGROV1 ovarian): 17.9 µM | TGI (IGROV1 ovarian): 35.5 µM | GI50 (K-562 leukemia): 21.1 µM | TGI (K-562 leukemia): 45.1 µM | GI50 (KM12 colon): 16.3 µM | TGI (KM12 colon): 32 µM | GI50 (LOX IMVI melanoma): 17.8 µM | TGI (LOX IMVI melanoma): 32.5 µM | GI50 (M14 melanoma): 18.6 µM | TGI (M14 melanoma): 35.6 µM | GI50 (MALME-3M melanoma): 16.3 µM | TGI (MALME-3M melanoma): 33 µM | GI50 (MCF7 breast): 14.4 µM | TGI (MCF7 breast): 32.7 µM | GI50 (MDA-MB-231 breast): 18.9 µM | TGI (MDA-MB-231 breast): 35.4 µM | GI50 (MDA-MB-435): 17.2 µM | TGI (MDA-MB-435): 32.4 µM | GI50 (MOLT-4 leukemia): 18.5 µM | TGI (MOLT-4 leukemia): 39.3 µM | GI50 (NCI-H226 lung): 16.7 µM | TGI (NCI-H226 lung): 32.4 µM | GI50 (NCI-H23 lung): 18.9 µM | TGI (NCI-H23 lung): 38.4 µM | GI50 (NCI-H460 lung): 16.6 µM | TGI (NCI-H460 lung): 32.8 µM | GI50 (NCI-H522 lung): 17.1 µM | TGI (NCI-H522 lung): 33.6 µM | GI50 (NCI/ADR-RES ovarian): 12.9 µM | TGI (NCI/ADR-RES ovarian): 32.1 µM | GI50 (OVCAR-3 ovarian): 17.3 µM | TGI (OVCAR-3 ovarian): 34.2 µM | GI50 (OVCAR-4 ovarian): 16 µM | TGI (OVCAR-4 ovarian): 35.4 µM | GI50 (OVCAR-5 ovarian): 16.2 µM | TGI (OVCAR-5 ovarian): 30.8 µM | GI50 (OVCAR-8 ovarian): 16.3 µM | TGI (OVCAR-8 ovarian): 32 µM | GI50 (PC-3 prostate): 14.9 µM | TGI (PC-3 prostate): 28.9 µM | GI50 (RPMI-8226 leukemia): 20.8 µM | TGI (RPMI-8226 leukemia): 44.4 µM | GI50 (RXF 393 renal): 3.29 µM | TGI (RXF 393 renal): 13.8 µM | GI50 (SF-268 CNS): 14.3 µM | TGI (SF-268 CNS): 30 µM | GI50 (SF-295 CNS): 14.9 µM | TGI (SF-295 CNS): 28.4 µM | GI50 (SF-539 CNS): 16.7 µM | TGI (SF-539 CNS): 31.4 µM | GI50 (SK-MEL-2 melanoma): 16.8 µM | TGI (SK-MEL-2 melanoma): 32.8 µM | GI50 (SK-MEL-28 melanoma): 16.9 µM | TGI (SK-MEL-28 melanoma): 33 µM | GI50 (SK-MEL-5 melanoma): 15.3 µM | TGI (SK-MEL-5 melanoma): 29 µM | GI50 (SK-OV-3 ovarian): 17.9 µM | TGI (SK-OV-3 ovarian): 32.1 µM | GI50 (SN12C renal): 11.4 µM | TGI (SN12C renal): 24.2 µM | GI50 (SNB-19 CNS): 17.6 µM | TGI (SNB-19 CNS): 32.3 µM | GI50 (SNB-75 CNS): 12.6 µM | TGI (SNB-75 CNS): 26.9 µM | GI50 (SR leukemia): 19.8 µM | TGI (SR leukemia): 41.2 µM | GI50 (SW-620 colon): 17.8 µM | TGI (SW-620 colon): 34.1 µM | GI50 (T-47D breast): 14.3 µM | TGI (T-47D breast): 30.8 µM | GI50 (TK-10 renal): 18.4 µM | TGI (TK-10 renal): 35.3 µM | GI50 (U251 CNS): 18.6 µM | TGI (U251 CNS): 34 µM | GI50 (UACC-257 melanoma): 25.2 µM | TGI (UACC-257 melanoma): 42.1 µM | GI50 (UACC-62 melanoma): 16.2 µM | TGI (UACC-62 melanoma): 30.3 µM | GI50 (UO-31 renal): 4.8 µM | TGI (UO-31 renal): 18.7 µM
